These are literature values, as cited in US8431165B2, “Medicament for treatment of cancer and other diseases” (Swing Aerobics Licensing, Inc., priority 2004, dated 2013).

The structures appear in SMILES notation.

For this data set the following is noted: adult men and women, mean+SD.

Consider `CC/C=C\C/C=C\C/C=C\CCCCCCCC(=O)O` [alpha-linolenic acid], for which the “average estimated conversion of alpha-linolenic acid to docosahexaenoic acid” value is reported as 3.6±3.8% and the “average estimated conversion of alpha-linolenic acid to n-3 LC-PUFA metabolites” value was 17.3±12.8%.
